Earlier results as cited in patent publication US20030113362A1, “Unique ascorbic acid derivatives with essential amino acids, nonessential amino acid and amino acids that do not occur in protein: the process for their preparation and use in research, medicine, physiology, pharmacology, nutrition, pharmaceuticals, and for cosmetic, commercial and industrial …” (priority 2001, published 2003).

Details: compared with ascorbic acid; test conditions not given

stability, times more stable than ascorbic acid: 20 times
SMILES: O=C1O[C@H]([C@@H](O)CO)C(O)=C1OS(=O)(=O)O [L-ascorbate 2-sulphate]
